Reference: patent US20160367556A1, “Therapeutic Agent for Ocular Disease or Prophylactic Agent for Ocular Disease” (Japan Tobacco Inc., priority 2013, published 2016)
Where “and” joins values, the source holds several entries; their conditions need not be identical. Identical values can stand only once. Like-named read-outs stand apart in the source and are kept apart here.

Tests used:
[1] = test system: VEGF-induced retinal vascular permeability; assay: Retinal vascular permeability suppression by oral administration in rat model where VEGF-induced retinal vascular permeability was increased; assay type: in vivo; settings: oral 10, 30 or 100 mg/kg; vitreous protein 24 hours after intravitreal rat VEGF164 400 ng/eye; FIG. 1
Procedure: Experiment 1. Retinal vascular permeability suppression by oral administration of Compound A in rat model where VEGF-induced retinal vascular permeability was increased A rat model where VEGF-induced retinal vascular permeability was increased was used to evaluate the ability of suppressing an increase of the retinal vascular permeability by Compound A. The animal model was prepared with appropriate modifications based on Non-Patent Literature 3, etc. As experimental animals, male Brown Norway rats aged 8 weeks {CHARLES RIVER LABORATORIES JAPAN, INC.} were used. Inside the vitreous body of each eye of rats, rat VEGF164 {400 ng/eye, R&D Systems, Inc.} was injected <VEGF-administered group>. Inside the vitreous body of each eye of rats in a normal control group, D-PBS (-) {Sigma-Aldrich Corporation} was intravitreally injected. Each group included four rats <eight eyeballs>. […] The protein concentration in the sampled vitreous body was determined by the Bradford method. The rate of suppressing an increase of the retinal vascular permeability was calculated according to the following equation X. Rate of suppressing increase of retinal vascular permeability (%)=(PB-PX)/(PB-PA)×100 [Equation X] […]

[2] = test system: VEGF-induced retinal vascular permeability; assay: Retinal vascular permeability suppression by intravitreal injection in rat model where VEGF-induced retinal vascular permeability was increased; assay type: in vivo; settings: intravitreal 10, 30 or 100 μg/eye mixed with rat VEGF164 400 ng/eye; vitreous protein at 24 hours; FIG. 2
Procedure: Experiment 2. Retinal vascular permeability suppression by intravitreal injection of Compound A in rat model where VEGF-induced retinal vascular permeability was increased As experimental animals, male Brown Norway rats aged 8 weeks {CHARLES RIVER LABORATORIES JAPAN, INC.} were used. A mixture of rat VEGF164 {400 ng/eye, R&D Systems, Inc.} and Compound A (10 μg/eye, 30 μg/eye or 100 μg/eye) dissolved or suspended in a base was injected into the vitreous body of each eye of rats <Compound A-administered group>. In the vitreous body of each eye of rats of a base-administered group, a mixture of rat VEGF164 and the base of the same volume as that of the Compound A-administered group was injected. As the base, an aqueous base was used. In the vitreous body of each eye of rats of a normal control group, D-PBS (-) {Sigma-Aldrich Corporation} was injected. Each group included four rats <eight eyeballs>. At 24 hours after intravitreal injection of VEGF, rats were euthanized, and the eyeballs of the rats were enucleated while avoiding contamination with blood. […] The protein concentration in the sampled vitreous body was determined by the Bradford method. The rate of suppressing an increase of the retinal vascular permeability was calculated according to the following equation X. Rate of suppressing increase of retinal vascular permeability (%)=(PB-PX)/(PB-PA)×100 [Equation X] […]

[3] = Plasma concentration after single oral administration to rats (LC-MS); assay type: in vivo; settings: rat, oral 100 mg/kg single; for concentration at 0.5 h / concentration at 1 h / concentration at 2 h / concentration at 4 h / concentration at 6 h / concentration at 24 h: male, Crl:CD <SD>, plasma, po, 100 mg/kg
Procedure: (§1) Experiment 3. Ocular tissue distribution and systematic exposure of Compound A orally administered or intravitreally injected
(§2) As experimental animals, male Crl:CD <SD> rats aged 8 weeks {CHARLES RIVER LABORATORIES JAPAN, INC.} were used.
(§3) Compound A suspended in a 1% (w/v) methylcellulose aqueous solution was orally administered to rats at 100 mg/kg. At 0.5, 1, 2, 4, 6 and 24 hours after oral administration, plasma and neural retina were sampled, and the concentrations of Compound A in the plasma and in the neural retina were quantified by liquid chromatography mass spectrometry <LC-MS>.
(§4) Transition of plasma concentration of Compound A orally administered (100 mg/kg) was shown in Table 1, transition of neural retina concentration of Compound A orally administered (100 mg/kg) was shown in Table 2, and transition of neural retina concentration of Compound A intravitreally injected (10 μg/eye) was shown in Table 3.

[4] = Neural retina concentration after single oral administration to rats (LC-MS); assay type: in vivo, rat
Procedure: as §1, §2, §3, §4

[5] = Neural retina concentration after intravitreal injection to rats (LC-MS); assay type: in vivo; settings: rat, intravitreal 10 μg/eye
Procedure: as §1, §2
In the vitreous body of each eye of rats, Compound A dissolved or suspended in a base was injected at 10 μg/eye. At 1, 2, 4 and 24 hours after intravitreal injection, neural retina was sampled, and the concentration of Compound A in the neural retina was quantified by LC-MS. Each group included two to three rats <four to six eyeballs>.
as §4

concentration at 0.5 h ([3]; 0.5 hr, average, read-out: Plasma concentration of Compound A, Average): 6320 ng/mL
concentration at 0.5 h ([3]; 0.5 hr, individual animal, read-out: Plasma concentration of Compound A): 5810 ng/mL
concentration at 1 h ([3]; 1 hr, average, read-out: Plasma concentration of Compound A, Average): 8260 ng/mL
concentration at 1 h ([3]; 1 hr, individual animal, read-out: Plasma concentration of Compound A): 7950 ng/mL
concentration at 2 h ([3]; 2 hr, average, read-out: Plasma concentration of Compound A, Average): 6350 ng/mL
concentration at 2 h ([3]; 2 hr, individual animal, read-out: Plasma concentration of Compound A): 6520 ng/mL
concentration at 4 h ([3]; 4 hr, average, read-out: Plasma concentration of Compound A, Average): 4140 ng/mL
concentration at 4 h ([3]; 4 hr, individual animal, read-out: Plasma concentration of Compound A): 4860 ng/mL
concentration at 6 h ([3]; 6 hr, average, read-out: Plasma concentration of Compound A, Average): 4050 ng/mL
concentration at 6 h ([3]; 6 hr, individual animal, read-out: Plasma concentration of Compound A): 3040 ng/mL
concentration at 24 h ([3]; 24 hr, average, read-out: Plasma concentration of Compound A, Average): 20 ng/mL
concentration at 24 h ([3]; 24 hr, individual animal, read-out: Plasma concentration of Compound A): 30 ng/mL
Plasma concentration of Compound A ([3]; 0.5 hr, individual animal): 6830 ng/mL
Plasma concentration of Compound A ([3]; 1 hr, individual animal): 8570 ng/mL
Plasma concentration of Compound A ([3]; 2 hr, individual animal): 6180 ng/mL
Plasma concentration of Compound A ([3]; 4 hr, individual animal): 3410 ng/mL
Plasma concentration of Compound A ([3]; 6 hr, individual animal): 5060 ng/mL
Plasma concentration of Compound A ([3]; 24 hr, individual animal): 20 ng/mL
passage through the blood-retina barrier [4]: passes through the blood-retina barrier
concentration at 0.5 h ([4]; male, Crl:CD <SD>, rat, neural retina, po, 100 mg/kg, rat, oral 100 mg/kg single, 0.5 hr, average, read-out: Neural retina concentration of Compound A, Average): 3740 ng/mL
concentration at 0.5 h ([4]; male, Crl:CD <SD>, rat, neural retina, po, 100 mg/kg, rat, oral 100 mg/kg single, 0.5 hr, individual eye, read-out: Neural retina concentration of Compound A): 2960 ng/mL
concentration at 1 h ([4]; male, Crl:CD <SD>, rat, neural retina, po, 100 mg/kg, rat, oral 100 mg/kg single, 1 hr, average, read-out: Neural retina concentration of Compound A, Average): 3860 ng/mL
concentration at 1 h ([4]; male, Crl:CD <SD>, rat, neural retina, po, 100 mg/kg, rat, oral 100 mg/kg single, 1 hr, individual eye, read-out: Neural retina concentration of Compound A): 3930 ng/mL
concentration at 2 h ([4]; male, Crl:CD <SD>, rat, neural retina, po, 100 mg/kg, rat, oral 100 mg/kg single, 2 hr, average, read-out: Neural retina concentration of Compound A, Average): 2720 ng/mL
concentration at 2 h ([4]; male, Crl:CD <SD>, rat, neural retina, po, 100 mg/kg, rat, oral 100 mg/kg single, 2 hr, individual eye, read-out: Neural retina concentration of Compound A): 2660 ng/mL
concentration at 4 h ([4]; male, Crl:CD <SD>, rat, neural retina, po, 100 mg/kg, rat, oral 100 mg/kg single, 4 hr, average, read-out: Neural retina concentration of Compound A, Average): 2390 ng/mL
concentration at 4 h ([4]; male, Crl:CD <SD>, rat, neural retina, po, 100 mg/kg, rat, oral 100 mg/kg single, 4 hr, individual eye, read-out: Neural retina concentration of Compound A): 2300 ng/mL
concentration at 6 h ([4]; male, Crl:CD <SD>, rat, neural retina, po, 100 mg/kg, rat, oral 100 mg/kg single, 6 hr, average, read-out: Neural retina concentration of Compound A, Average): 1920 ng/mL
Neural retina concentration of Compound A ([4]; rat, oral 100 mg/kg single, 0.5 hr, individual eye, 100 mg/kg): 4.42 µg/mL and 4.89 µg/mL and 2.70 µg/mL
Neural retina concentration of Compound A ([4]; rat, oral 100 mg/kg single, 1 hr, individual eye, 100 mg/kg): 4.48 µg/mL and 3.24 µg/mL and 3.80 µg/mL
Neural retina concentration of Compound A ([4]; rat, oral 100 mg/kg single, 2 hr, individual eye, 100 mg/kg): 2.12 µg/mL and 3.38 µg/mL
Neural retina concentration of Compound A ([4]; rat, oral 100 mg/kg single, 4 hr, individual eye, 100 mg/kg): 2.54 µg/mL and 2.29 µg/mL and 2.43 µg/mL
concentration at 1 h ([5]; male, Crl:CD <SD>, neural retina, other: intravitreal injection, 10 μg/eye, 1 hr, average, read-out: Neural retina concentration of Compound A, Average): 45000 ng/mL
concentration at 1 h ([5]; male, Crl:CD <SD>, neural retina, other: intravitreal injection, 10 μg/eye, 1 hr, individual eye, read-out: Neural retina concentration of Compound A): 39500 ng/mL
concentration at 2 h ([5]; male, Crl:CD <SD>, neural retina, other: intravitreal injection, 10 μg/eye, 2 hr, average, read-out: Neural retina concentration of Compound A, Average): 9690 ng/mL
concentration at 4 h ([5]; male, Crl:CD <SD>, neural retina, other: intravitreal injection, 10 μg/eye, 4 hr, average, read-out: Neural retina concentration of Compound A, Average): 1550 ng/mL
SMILES: C[C@H]1CN(C(=O)CC#N)[C@]12CCN(c1ncnc3[nH]ccc13)C2 [Compound A, 3-[(3S,4R)-3-Methyl-6-(7H-pyrrolo[2,3-d]pyrimidin-4-yl)-1,6-diazaspiro[3.4]octan-1-yl]-3-oxopropanenitrile]
suppression of retinal vascular permeability [1]: suppression of retinal vascular permeability
suppression of retinal vascular permeability [2]: suppression of retinal vascular permeability
Neural retina concentration of Compound A ([4]; rat, oral 100 mg/kg single, 6 hr, individual eye, 100 mg/kg): 2.90 µg/mL and 2.24 µg/mL and 1.05 µg/mL and 1.47 µg/mL
Neural retina concentration of Compound A ([4]; rat, oral 100 mg/kg single, 24 hr, individual eye): BLQ (Below the lower limit of quantification (ca. 0.16 μg/g))
Neural retina concentration of Compound A ([5]; 1 hr, individual eye): 52.66 µg/mL and 45.53 µg/mL and 42.17 µg/mL
Neural retina concentration of Compound A ([5]; 2 hr, individual eye): 6.28 µg/mL and 13.49 µg/mL and 4.73 µg/mL and 12.71 µg/mL and 15.78 µg/mL and 5.13 µg/mL
Neural retina concentration of Compound A ([5]; 4 hr, individual eye): 2.07 µg/mL and 2.64 µg/mL and 0.27 µg/mL and 1.42 µg/mL and 1.66 µg/mL and 1.26 µg/mL
Neural retina concentration of Compound A ([5]; 24 hr, individual eye): BLQ (Below the lower limit of quantification (ca. 0.16 μg/g))
